Data: PubChem BioAssay AID1919017 (Molecular Pharmacology Branch, DTP, NCI, 2023)

Tested on: SW1271 complex spheroids with HUVEC/MSC, growth, % test/control
Test: Anticancer human tumor SW1271 cell line growth inhibition [AhR];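 further: spheroids exposed to agents for 7 days before readout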
Conditions: for IC50: curve of first compound; for viability, T/C: stronger effect = lower value
Summary of the method: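 Complex tumor spheroids co-cultured with HUVEC and human MSC stroma; AhR antagonists tested in combination with standard-of-care and investigational agents. Top concentration at or near clinical Cmax (else 10 microM), half-log dilutions; growth expressed as percent test/control.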

[1] = second compound 0.1 µM, first compound 0.0316 µM
[2] = second compound 0.1 µM, first compound 0.1 µM
[3] = second compound 0.316 µM, first compound 0.0316 µM
[4] = second compound 0.316 µM, first compound 0.1 µM
[5] = second compound 1 µM, first compound 0.0316 µM
[6] = second compound 1 µM, first compound 0.1 µM
[7] = second compound 3.16 µM, first compound 0.0316 µM
[8] = second compound 3.16 µM, first compound 0.1 µM
[9] = second compound 10 µM, first compound 0.0316 µM
[10] = second compound 10 µM, first compound 0.1 µM

Cn1ncnc1C1c2n[nH]c(=O)c3cc(F)cc(c23)NC1c1ccc(F)cc1 (stereo not given) + Cc1cncc(-c2nc(NCCc3c[nH]c4ccccc34)c3ncn(C(C)C)c3n2)c1
IC50 (second compound 0.1 µM): > 0.1 µM | IC50 (second compound 0.316 µM): > 0.1 µM | IC50 (second compound 1 µM): > 0.1 µM | IC50 (second compound 3.16 µM): > 0.1 µM | IC50 (second compound 10 µM): > 0.1 µM | viability, T/C (second compound 0.1 µM, first compound 0.000316 µM): 111% | viability, T/C (second compound 0.1 µM, first compound 0.001 µM): 103% | viability, T/C (second compound 0.1 µM, first compound 0.00316 µM): 94.4% | viability, T/C (second compound 0.1 µM, first compound 0.01 µM): 119% | viability, T/C [1]: 110% | viability, T/C [2]: 107% | viability, T/C (second compound 0.316 µM, first compound 0.000316 µM): 96.2% | viability, T/C (second compound 0.316 µM, first compound 0.001 µM): 90.7% | viability, T/C (second compound 0.316 µM, first compound 0.00316 µM): 88.6% | viability, T/C (second compound 0.316 µM, first compound 0.01 µM): 98.2% | viability, T/C [3]: 77.4% | viability, T/C [4]: 91% | viability, T/C (second compound 1 µM, first compound 0.000316 µM): 91.8% | viability, T/C (second compound 1 µM, first compound 0.001 µM): 103% | viability, T/C (second compound 1 µM, first compound 0.00316 µM): 92.4% | viability, T/C (second compound 1 µM, first compound 0.01 µM): 95.8% | viability, T/C [5]: 94.7% | viability, T/C [6]: 83.3% | viability, T/C (second compound 3.16 µM, first compound 0.000316 µM): 103% | viability, T/C (second compound 3.16 µM, first compound 0.001 µM): 105% | viability, T/C (second compound 3.16 µM, first compound 0.00316 µM): 88.2% | viability, T/C (second compound 3.16 µM, first compound 0.01 µM): 92% | viability, T/C [7]: 98.6% | viability, T/C [8]: 94.7% | viability, T/C (second compound 10 µM, first compound 0.000316 µM): 44.9% | viability, T/C (second compound 10 µM, first compound 0.001 µM): 43.8% | viability, T/C (second compound 10 µM, first compound 0.00316 µM): 86.5% | viability, T/C (second compound 10 µM, first compound 0.01 µM): 53.5% | viability, T/C [9]: 61.3% | viability, T/C [10]: 40.7%

NS(=O)(=O)OCC1CC(n2ccc3c(NC4CCc5ccccc54)ncnc32)CC1O (stereo not given) + Cc1cncc(-c2nc(NCCc3c[nH]c4ccccc34)c3ncn(C(C)C)c3n2)c1
IC50 (second compound 0.1 µM): > 10 µM | IC50 (second compound 0.316 µM): > 10 µM | IC50 (second compound 1 µM): > 10 µM | IC50 (second compound 3.16 µM): > 10 µM | IC50 (second compound 10 µM): 0.512 µM | viability, T/C [1]: 129% | viability, T/C [2]: 140% | viability, T/C (second compound 0.1 µM, first compound 0.316 µM): 145% | viability, T/C (second compound 0.1 µM, first compound 1 µM): 86% | viability, T/C (second compound 0.1 µM, first compound 3.16 µM): 76.5% | viability, T/C (second compound 0.1 µM, first compound 10 µM): 71.8% | viability, T/C [3]: 131% | viability, T/C [4]: 177% | viability, T/C (second compound 0.316 µM, first compound 0.316 µM): 136% | viability, T/C (second compound 0.316 µM, first compound 1 µM): 100% | viability, T/C (second compound 0.316 µM, first compound 3.16 µM): 76.7% | viability, T/C (second compound 0.316 µM, first compound 10 µM): 81% | viability, T/C [5]: 143% | viability, T/C [6]: 166% | viability, T/C (second compound 1 µM, first compound 0.316 µM): 154% | viability, T/C (second compound 1 µM, first compound 1 µM): 76.3% | viability, T/C (second compound 1 µM, first compound 3.16 µM): 75% | viability, T/C (second compound 1 µM, first compound 10 µM): 79% | viability, T/C [7]: 185% | viability, T/C [8]: 168% | viability, T/C (second compound 3.16 µM, first compound 0.316 µM): 158% | viability, T/C (second compound 3.16 µM, first compound 1 µM): 71.2% | viability, T/C (second compound 3.16 µM, first compound 3.16 µM): 63.3% | viability, T/C (second compound 3.16 µM, first compound 10 µM): 66.1% | viability, T/C [9]: 94.1% | viability, T/C [10]: 96.3% | viability, T/C (second compound 10 µM, first compound 0.316 µM): 54.7% | viability, T/C (second compound 10 µM, first compound 1 µM): 44.5% | viability, T/C (second compound 10 µM, first compound 3.16 µM): 44.4% | viability, T/C (second compound 10 µM, first compound 10 µM): 41.3%
